Experimental data as given in patent US20240294551A1 (AMGEN INC., priority 2022, published 2024).
Like-named read-outs stand apart in the source and are kept apart here.

Columns and labels:
[1] = target: His-tagged KRAS G12D protein (Homo sapiens (Human), UniProt P01116, G12D); experiment: KRAS G12D TR-FRET Assay; type: binding
Outline: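 His-tagged KRAS G12D (diluted to 20 nM in pH 7.4 HEPES buffer with 10 mM MgCl2 and 10 μM GDP) was preincubated with titrated compound for 30 min at room temperature. Biotinylated KRPep-2d peptide (diluted to 20 nM) was then added for 1 h, and displacement was monitored by TR-FRET.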

[2] = test system: Phosphorylation of ERK1/2 in AsPC-1 cells; experiment: Phospho-ERK1/2 MSD Assay; type: cell-based, human; conditions: Homo sapiens, ASPC1, 2 h
Outline: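 Read-out: MSD electrochemiluminescent detection of phosphorylated ERK1/2 in whole-cell lysates, fitted to a 4-parameter logistic curve for IC50. Prior to lysis, AsPC-1 cells (25,000 per well) received a 2 h compound dose-response at 37 °C.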

[3] = target: GDP-bound KRAS protein (aa 1-169), containing both G12D and C118A amino acid substitutions (Homo sapiens (Human), UniProt P01116, C118A/G12D); experiment: KRAS G12D Coupled Nucleotide Exchange Assay; type: biochemical
GDP-bound KRAS protein (aa 1-169), containing both G12D and C118A amino acid substitutions, sequence (P01116 other isoform, or with tags, fused parts or gaps G12D/C118A): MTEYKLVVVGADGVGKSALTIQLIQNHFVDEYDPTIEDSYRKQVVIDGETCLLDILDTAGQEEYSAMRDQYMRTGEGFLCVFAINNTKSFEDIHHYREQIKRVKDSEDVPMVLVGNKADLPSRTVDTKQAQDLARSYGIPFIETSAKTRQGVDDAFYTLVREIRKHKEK

[4] = read-out: KRAS G12D Binding IC50
[5] = read-out: 2 h p-ERK (AsPC-1 cells), IC50
[6] = read-out: KRAS G12D Coupled Exchange IC50

His-tagged KRAS G12D protein, sequence (P01116 other isoform, or with tags, fused parts or gaps G12D): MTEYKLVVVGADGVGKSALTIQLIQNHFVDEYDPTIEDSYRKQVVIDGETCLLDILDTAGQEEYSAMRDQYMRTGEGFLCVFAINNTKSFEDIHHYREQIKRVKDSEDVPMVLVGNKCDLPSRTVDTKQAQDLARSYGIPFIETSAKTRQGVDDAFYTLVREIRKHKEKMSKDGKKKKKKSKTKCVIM

Row | Compound | IC50 [1, 4] | IC50 [2, 5] | IC50 [3, 6] | IC50 ([1]; TR-FRET, read-out: KRAS G12D Binding) | IC50 ([2]; read-out: 2 h p-ERK (AsPC-1 cells)) | IC50 ([3]; 2 hours compound pre-incubation, read-out: KRAS G12D Coupled Exchange)
1 | Fc1c2ncc3c(nc(OC[C@@]45CCCN4C[C@H](F)C5)nc13)N1CCCC(C1)c1cnc(o1)CCCc1c(Cl)cc3[nH]ncc3c1-2 (stereo partly drawn) [Example 255] | 10 nM | 77.5 nM | 9 nM | – | – | –
2 | CN1C(=O)OCCCc2c(Cl)cc3[nH]ncc3c2-c2ncc3c(nc(OC[C@@]45CCCN4C[C@H](F)C5)nc3c2F)N2C[C@@H](O)C[C@@H]1C2 [Example 286, (17R,19S)-9-chloro-30-fluoro-24-(((2R,7aS)-2-fluorotetrahydro-1H-pyrrolo[1,2-a]pyrrol-7a(5H)-yl)methoxy)-19-hydroxy-16-methyl-14-oxa-5,6,16,21,23,25,29-heptaazahexacyclo[24.3.1.1~17,21~.0~2,10~.0~3,7~.0~22,27~]hentriaconta-1(30),2,4,7,9,22,24,26,28-nonaen-15-one] | 81 nM | 1250 nM | 15 nM | – | – | –
3 | Fc1c2ncc3c(nc(OC[C@@]45CCCN4C[C@H](F)C5)nc13)N1CCOC(C1)c1cnn(n1)CCCc1c(Cl)cc3[nH]ncc3c1-2 (stereo partly drawn) [Example 294, 9-chloro-31-fluoro-25-(((2R,7aS)-2-fluorotetrahydro-1H-pyrrolo[1,2-a]pyrrol-7a(5H)-yl)methoxy)-19-oxa-5,6,14,15,22,24,26,30,33-nonaazaheptacyclo[25.3.1.1~14,17~.1~18,22~.0~2,10~.0~3,7~.0~23,28~]tritriaconta-1(31),2,4,7,9,15,17(33),23,25,27,29-undecaene] | 20 nM | 55.1 nM | 9 nM | – | – | –
4 | Cn1ncc2cc(Cl)c3c(c21)-c1ncc2c(nc(OC[C@@]45CCCN4C[C@H](F)C5)nc2c1F)N1CCOC[C@H](C1)OC(=O)OCCC3 [Example 335, (26S)-18-chloro-32-fluoro-4-(((2R,7aS)-2-fluorotetrahydro-1H-pyrrolo[1,2-a]pyrrol-7a(5H)-yl)methoxy)-13-methyl-23,25,28-trioxa-1,3,5,9,13,14-hexaazahexacyclo[24.4.1.1~6,10~.0~2,7~.0~11,19~.0~12,16~]dotriaconta-2,4,6,8,10(32),11,14,16,18-nonaen-24-one] | 44 nM | 1260 nM | 9 nM | – | – | –
5 | CN1CCN(c2nc3c4cnc(c(F)c4n2)-c2c(c(Cl)cc4[nH]ncc24)CCCOC(=O)O[C@@H]2COCCN3C2)CC1 [Example 347, (26S)-18-chloro-32-fluoro-4-(4-methyl-1-piperazinyl)-23,25,28-trioxa-1,3,5,9,14,15-hexaazahexacyclo[24.4.1.1~6,10~.0~2,7~.0~11,19~.0~12,16~]dotriaconta-2,4,6,8,10(32),11,13,16,18-nonaen-24-one] | 27 nM | 200 nM | 7 nM | – | – | –
6 | Cc1cc2[nH]ncc2c2c1CCOC(=O)O[C@H]1C[C@]3(CCCN(C3)c3nc(OC[C@@]45CCCN4C[C@H](F)C5)nc4cc-2nnc34)C1 [Example 358, (1R,3S)-24-(((2R,7aS)-2-fluorotetrahydro-1H-pyrrolo[1,2-a]pyrrol-7a(5H)-yl)methoxy)-10-methyl-4,6-dioxa-13,14,19,20,23,25,27-heptaazaheptacyclo[25.3.1.1~1,3~.1~18,22~.0~9,17~.0~12,16~.0~21,26~]tritriaconta-9,11,14,16,18(32),19,21,23,25-nonaen-5-one] | 24 nM | 384 nM | 16 nM | – | – | –
7 | CN1CCC(Oc2nc3c4cnc(c(F)c4n2)-c2c(c(Cl)cc4[nH]ncc24)CCCOC(=O)O[C@@H]2COCCN3C2)CC1.O=C(O)C(F)(F)F [Example 370, (26S)-18-Chloro-32-fluoro-4-((1-methyl-4-piperidinyl)oxy)-23,25,28-trioxa-1,3,5,9,14,15-hexaazahexacyclo[24.4.1.1˜6,10˜.0˜2,7˜.0˜11,19˜.0˜12,16˜]dotriaconta-2,4,6,8,10(32),11,13,16,18-nonaen-24-one trifluoroacetate] | 36 nM | 708 nM | 18 nM | – | – | –
8 | O=C1OCCc2c(F)ccc3cccc(c23)-c2ncc3c(nc(OC[C@@]45CCCN4C[C@H](F)C5)nc3c2F)N2CCOC[C@H](C2)O1 [Example 371] | 8 nM | 239 nM | 4 nM | – | – | –
9 | Fc1c2ncc3c(nc(OC[C@@]45CCCN4C[C@H](F)C5)nc13)N1CCC[C@H](C1)c1cnc(o1)CCCc1c(Cl)cc3[nH]ncc3c1-2 [Example 387, (18R)-9-chloro-31-fluoro-25-(((2R,7aS)-2-fluorotetrahydro-1H-pyrrolo[1,2-a]pyrrol-7a(5H)-yl)methoxy)-33-oxa-5,6,15,22,24,26,30-heptaazaheptacyclo[25.3.1.1~14,17~.1~18,22~.0~2,10~.0~3,7~.0~23,28~]tritriaconta-1(31),2,4,7,9,14,16,23,25,27,29-undecaene] | – | – | – | 8 nM | 66.3 nM | 4 nM

Results, then the compound that gave them:

Row | IC50 [1, 4] | IC50 [2, 5] | IC50 [3, 6] | IC50 ([1]; TR-FRET, read-out: KRAS G12D Binding) | IC50 ([2]; read-out: 2 h p-ERK (AsPC-1 cells)) | IC50 ([3]; 2 hours compound pre-incubation, read-out: KRAS G12D Coupled Exchange) | Compound
10 | 28 nM | 926 nM | 17 nM | – | – | – | C[C@H]1CCOC[C@H]2CN(CCO2)c2nc(OC[C@@]34CCCN3C[C@H](F)C4)nc3c(F)c(ncc23)-c2c(c(Cl)cc3[nH]ncc23)C1 [Example 252, (12R,17R)-9-chloro-30-fluoro-24-(((2R,7aS)-2-fluorotetrahydro-1H-pyrrolo[1,2-a]pyrrol-7a(5H)-yl)methoxy)-12-methyl-15,18-dioxa-5,6,21,23,25,29-hexaazahexacyclo[24.3.1.1~17,21~.0~2,10~.0~3,7~.0~22,27~]hentriaconta-1(30),2,4,7,9,22,24,26,28-nonaene]
11 | 6 nM | 42.4 nM | 4 nM | – | – | – | Fc1c2ncc3c(nc(OC[C@@]45CCCN4C[C@H](F)C5)nc13)N1CCOC[C@]3(C1)C[C@@H](C3)OCCCCc1c(Cl)cc3[nH]ncc3c1-2 [Example 263, (1S,3S)-10-chloro-33-fluoro-24-(((2R,7aS)-2-fluorotetrahydro-1H-pyrrolo[1,2-a]pyrrol-7a(5H)-yl)methoxy)-4,30-dioxa-13,14,19,23,25,27-hexaazaheptacyclo[25.4.1.1~1,3~.1~18,22~.0~9,17~.0~12,16~.0~21,26~]tetratriaconta-9,11,14,16,18(33),19,21,23,25-nonaene]
12 | 38 nM | 368 nM | 24 nM | – | – | – | Fc1c2ncc3c(nc(OC[C@@]45CCCN4C[C@H](F)C5)nc13)N1CCOC[C@]3(C1)C[C@H](C3)OCCCCc1c(Cl)cc3[nH]ncc3c1-2 [Example 264, (1R,3R)-10-chloro-33-fluoro-24-(((2R,7aS)-2-fluorotetrahydro-1H-pyrrolo[1,2-a]pyrrol-7a(5H)-yl)methoxy)-4,30-dioxa-13,14,19,23,25,27-hexaazaheptacyclo[25.4.1.1~1,3~.1~18,22~.0~9,17~.0~12,16~.0~21,26~]tetratriaconta-9,11,14,16,18(33),19,21,23,25-nonaene]
13 | 13 nM | 500 nM | 2 nM | – | – | – | O=C1COCCc2c(Cl)cc3[nH]ncc3c2-c2ncc3c(nc(OC[C@@]45CCCN4C[C@H](F)C5)nc3c2F)N2CCCC[C@H](C2)N1 [Example 271, (26R)-18-chloro-32-fluoro-4-(((2R,7aS)-2-fluorotetrahydro-1H-pyrrolo[1,2-a]pyrrol-7a(5H)-yl)methoxy)-22-oxa-1,3,5,9,14,15,25-heptaazahexacyclo[24.4.1.1~6,10~.0~2,7~.0~11,19~.0~12,16~]dotriaconta-2,4,6,8,10(32),11,13,16,18-nonaen-24-one]
14 | 26 nM | 1230 nM | 5 nM | – | – | – | O=C1N[C@@H]2CCCCN(C2)c2nc(OC[C@@]34CCCN3C[C@H](F)C4)nc3c(F)c(ncc23)-c2c(c(Cl)cc3[nH]ncc23)CCCCO1 [Example 291, (27R)-18-chloro-33-fluoro-4-(((2R,7aS)-2-fluorotetrahydro-1H-pyrrolo[1,2-a]pyrrol-7a(5H)-yl)methoxy)-24-oxa-1,3,5,9,14,15,26-heptaazahexacyclo[25.4.1.1~6,10~.0~2,7~.0~11,19~.0~12,16~]tritriaconta-2,4,6(33),7,9,11,13,16,18-nonaen-25-one]
15 | 366 nM | 589 nM | 156 nM | – | – | – | C[C@]12C[C@]3(CN(CCO3)c3nc(OC[C@@]45CCCN4C[C@H](F)C5)nc4c(F)c(ncc34)-c3c(c(Cl)cc4[nH]ncc34)CCOC(=O)O1)C2 [Example 322, (1S,3S)-10-chloro-32-fluoro-24-(((2R,7aS)-2-fluorotetrahydro-1H-pyrrolo[1,2-a]pyrrol-7a(5H)-yl)methoxy)-3-methyl-4,6,30-trioxa-13,14,19,23,25,27-hexaazaheptacyclo[25.3.1.1~1,3~.1~18,22~.0~9,17~.0~12,16~.0~21,26~]tritriaconta-9,11,14,16,18(32),19,21,23,25-nonaen-5-one]
16 | 1350 nM | 826 nM | 501 nM | – | – | – | O=C1OCCCc2c(Cl)cc3[nH]ncc3c2-c2ncc3c(nc(OC[C@@]45CCCN4C[C@H](F)C5)nc3c2F)N2CCCC[C@@](CF)(C2)O1 [Example 339, (26S)-18-chloro-32-fluoro-26-(fluoromethyl)-4-(((2R,7aS)-2-fluorotetrahydro-1H-pyrrolo[1,2-a]pyrrol-7a(5H)-yl)methoxy)-23,25-dioxa-1,3,5,9,14,15-hexaazahexacyclo[24.4.1.1~6,10~.0~2,7~.0~11,19~.0~12,16~]dotriaconta-2,4,6,8,10(32),11,13,16,18-nonaen-24-one]
